From ChEMBL document CHEMBL3608207, “Synthesis, characterization, evaluation and molecular dynamics studies of 5, 6-diphenyl-1,2,4-triazin-3(2H)-one derivatives bearing 5-substituted 1,3,4-oxadiazole as potential anti-inflammatory and analgesic agents” (Eur J Med Chem, 2015)

What was measured:
Rattus norvegicus [1] = assay: Anti-inflammatory activity in rat model of acute inflammation assessed as inhibition of carrageenan-induced paw oedema dosed at 10 mg/kg, po dosed 1 hr before carrageenan injection and measured 3 hrs after carrageenan injection; format: functional
Rattus norvegicus [2] = assay: Anti-inflammatory activity in rat model of acute inflammation assessed as inhibition of carrageenan-induced paw oedema dosed at 10 mg/kg, po dosed 1 hr before carrageenan injection and measured 4 hrs after carrageenan injection; format: functional
Rattus norvegicus [3] = assay: Anti-inflammatory activity in rat model of acute inflammation assessed as inhibition of carrageenan-induced paw oedema dosed at 10 mg/kg, po dosed 1 hr before carrageenan injection and measured 5 hrs after carrageenan injection; format: functional
Rattus norvegicus [4] = assay: Anti-inflammatory activity in rat model of acute inflammation assessed as inhibition of carrageenan-induced paw oedema dosed at 10 mg/kg, po dosed 1 hr before carrageenan injection and measured 6 hrs after carrageenan injection; format: functional
Rattus norvegicus [5] = assay: Anti-inflammatory activity in rat assessed as inhibition of arachidonic acid-induced paw edema at 10 mg/kg, po dosed 30 mins before arachidonic acid injection and measured 1 hr after arachidonic acid injection; format: functional
Rattus norvegicus [6] = assay: Anti-inflammatory activity in rat Freund's adjuvant induced arthritis model of chronic inflammation assessed as inhibition of right hind paw swelling at 10 mg/kg, po dosed after 14 days from day of adjuvant injection until day 21 and measured on day 3; format: functional
Rattus norvegicus [7] = assay: Anti-inflammatory activity in rat Freund's adjuvant induced arthritis model of chronic inflammation assessed as inhibition of right hind paw swelling at 10 mg/kg, po dosed after 14 days from day of adjuvant injection until day 21 and measured on day 6; format: functional
Rattus norvegicus [8] = assay: Anti-inflammatory activity in rat Freund's adjuvant induced arthritis model of chronic inflammation assessed as inhibition of right hind paw swelling at 10 mg/kg, po dosed after 14 days from day of adjuvant injection until day 21 and measured on day 9; format: functional
Rattus norvegicus [9] = assay: Anti-inflammatory activity in rat Freund's adjuvant induced arthritis model of chronic inflammation assessed as inhibition of right hind paw swelling at 10 mg/kg, po dosed after 14 days from day of adjuvant injection until day 21 and measured on day 12; format: functional
Rattus norvegicus [10] = assay: Anti-inflammatory activity in rat Freund's adjuvant induced arthritis model of chronic inflammation assessed as inhibition of right hind paw swelling at 10 mg/kg, po dosed after 14 days from day of adjuvant injection until day 21 and measured on day 15; format: functional
Rattus norvegicus [11] = assay: Anti-inflammatory activity in rat Freund's adjuvant induced arthritis model of chronic inflammation assessed as inhibition of right hind paw swelling at 10 mg/kg, po dosed after 14 days from day of adjuvant injection until day 21 and measured on day 18; format: functional
Rattus norvegicus [12] = assay: Anti-inflammatory activity in rat Freund's adjuvant induced arthritis model of chronic inflammation assessed as inhibition of right hind paw swelling at 10 mg/kg, po dosed after 14 days from day of adjuvant injection until day 21 and measured on day 21; format: functional
Rattus norvegicus [13] = assay: Gastro-intestinal toxicity in rat Freund's adjuvant induced arthritis model of chronic inflammation assessed as ulcer index at 10 mg/kg, po dosed after 14 days from day of adjuvant injection until day 21 and measured on day 21; format: organism-based; details: in vivo, 336 h
Rattus norvegicus [14] = assay: Gastro-intestinal toxicity in rat Freund's adjuvant induced arthritis model of chronic inflammation assessed as assessed as histological changes at 10 mg/kg, po dosed after 14 days from day of adjuvant injection until day 21 and measured on day 21 by hematoxylin and eosin staining based microscopy; format: organism-based; details: in vivo, 336 h
Rattus norvegicus [15] = assay: Hepato-toxicity in rat Freund's adjuvant induced arthritis model of chronic inflammation assessed as assessed as SGOT level at 10 mg/kg, po dosed after 14 days from day of adjuvant injection until day 21 and measured on day 21 (reference value: 92.48 +/- 7.8 U/mL); format: organism-based; details: in vivo, 336 h
Rattus norvegicus [16] = assay: Hepato-toxicity in rat Freund's adjuvant induced arthritis model of chronic inflammation assessed as assessed as SGPT level at 10 mg/kg, po dosed after 14 days from day of adjuvant injection until day 21 and measured on day 21 (reference value: 34.23 +/- 2.5 U/mL); format: organism-based; details: in vivo, 336 h
Rattus norvegicus [17] = assay: Hepato-toxicity in rat Freund's adjuvant induced arthritis model of chronic inflammation assessed as assessed as alkaline phosphatase level at 10 mg/kg, po dosed after 14 days from day of adjuvant injection until day 21 and measured on day 21 (reference value: 17.82 +/- 1.2 U); format: organism-based; details: in vivo, 336 h
Rattus norvegicus [18] = assay: Renal toxicity in rat Freund's adjuvant induced arthritis model of chronic inflammation assessed as assessed as total protein level at 10 mg/kg, po dosed after 14 days from day of adjuvant injection until day 21 and measured on day 21 (reference value: 1.78 +/- 0.11 g/dL); format: organism-based; details: in vivo, 336 h
Rattus norvegicus [19] = assay: Renal toxicity in rat Freund's adjuvant induced arthritis model of chronic inflammation assessed as assessed as total albumin level at 10 mg/kg, po dosed after 14 days from day of adjuvant injection until day 21 and measured on day 21 (reference value: 1.77 +/- 0.12 g/dL); format: organism-based; details: in vivo, 336 h
Rattus norvegicus [20] = assay: Renal toxicity in rat Freund's adjuvant induced arthritis model of chronic inflammation assessed as assessed as creatinine level at 10 mg/kg, po dosed after 14 days from day of adjuvant injection until day 21 and measured on day 21 (reference value: 0.62 +/- 0.049 mg/dL); format: organism-based; details: in vivo, 336 h
Rattus norvegicus [21] = assay: Renal toxicity in rat Freund's adjuvant induced arthritis model of chronic inflammation assessed as assessed as blood urea nitrogen level at 10 mg/kg, po dosed after 14 days from day of adjuvant injection until day 21 and measured on day 21 (reference value: 23.48 +/- 1.8 mg/dL); format: organism-based; details: in vivo, 336 h
Rattus norvegicus [22] = assay: Hepato-toxicity in rat Freund's adjuvant induced arthritis model of chronic inflammation assessed as assessed as histological changes at 10 mg/kg, po dosed after 14 days from day of adjuvant injection until day 21 and measured on day 21 by hematoxylin and eosin staining based microscopy; format: organism-based; details: in vivo, 336 h
Rattus norvegicus [23] = assay: Renal toxicity in rat Freund's adjuvant induced arthritis model of chronic inflammation assessed as assessed as histological changes at 10 mg/kg, po dosed after 14 days from day of adjuvant injection until day 21 and measured on day 21 by hematoxylin and eosin staining based microscopy; format: organism-based; details: in vivo, 336 h
Mus musculus [24] = assay: Analgesic activity in Swiss albino mouse assessed as reduction in number of writhing episodes at 10 mg/kg, po measured 30 mins following acetic acid injection; format: functional; details: 0.5 h
Mus musculus [25] = assay: Analgesic activity in Swiss albino mouse assessed as reduction in formalin-induced paw licking by measuring time spent on licking during phase-1 at 10 mg/kg, po dosed 1 hr before formalin challenge and measured 30 mins after formalin injection; format: functional
Mus musculus [26] = assay: Analgesic activity in Swiss albino mouse assessed as reduction in formalin-induced paw licking by measuring time spent on licking during phase-2 at 10 mg/kg, po dosed 1 hr before formalin challenge and measured 30 mins after formalin injection; format: functional
[27] = In-vitro antiinflammatory activity assessed as inhibition of denaturation of bovine serum albumin at 10 mg; format: functional
Rattus norvegicus [28] = assay: Anti-inflammatory activity in rat model of acute inflammation assessed as inhibition of carrageenan-induced paw oedema dosed at 10 mg/kg, po dosed 1 hr before carrageenan injection and measured 1 hr after carrageenan injection; format: functional
Rattus norvegicus [29] = assay: Anti-inflammatory activity in rat model of acute inflammation assessed as inhibition of carrageenan-induced paw oedema dosed at 10 mg/kg, po dosed 1 hr before carrageenan injection and measured 2 hrs after carrageenan injection; format: functional

`COc1ccc2c(c1)c(CC(=O)O)c(C)n2C(=O)c1ccc(Cl)cc1` [INDOMETHACIN] showed an inhibition in vivo at 10 mg/kg (Rattus norvegicus [1]) of 60.5%, an inhibition in vivo at 10 mg/kg (Rattus norvegicus [2]) of 60% and an inhibition in vivo at 10 mg/kg (Rattus norvegicus [3]) of 62.6%. For the same molecule, the inhibition in vivo at 10 mg/kg (Rattus norvegicus [4]) was 57.8%, the inhibition in vivo at 10 mg/kg (Rattus norvegicus [5]) was 21.1% and the inhibition in vivo at 10 mg/kg (Rattus norvegicus [6]) was 33.1%. It also gave an inhibition in vivo at 10 mg/kg (Rattus norvegicus [7]) of 39.7%, an inhibition in vivo at 10 mg/kg (Rattus norvegicus [8]) of 42.4% and an inhibition in vivo at 10 mg/kg (Rattus norvegicus [9]) of 45.9%. For the same molecule, the inhibition in vivo at 10 mg/kg (Rattus norvegicus [10]) was 51.3%, the inhibition in vivo at 10 mg/kg (Rattus norvegicus [11]) was 54.2% and the inhibition in vivo at 10 mg/kg (Rattus norvegicus [12]) was 56.8%. The UI (Rattus norvegicus [13]) was 52, the Activity (Rattus norvegicus [14]) was “Toxic” and the Activity (Rattus norvegicus [15]) was 121.56 U/ml. It also gave an Activity (Rattus norvegicus [16]) of 52.83 U/ml, an Activity (Rattus norvegicus [17]) of 26.24 U and an Activity (Rattus norvegicus [18]) of 2.24 g/dL. The Activity (Rattus norvegicus [19]) was 2.08 g/dL, the Activity (Rattus norvegicus [20]) was 1.84 mg/dL and the Activity (Rattus norvegicus [21]) was 62.74 mg/dL. The Activity (Rattus norvegicus [22]) was “Toxic”, the Activity (Rattus norvegicus [23]) was “Toxic” and the inhibition in vivo at 10 mg/kg (Mus musculus [24]) was 77.3%. For the same molecule, the inhibition in vivo at 10 mg/kg (Mus musculus [25]) was 15.6%, the inhibition in vivo at 10 mg/kg (Mus musculus [26]) was 82.2% and the inhibition [27] was 84.9%. It also gave an inhibition in vivo at 10 mg/kg (Rattus norvegicus [28]) of 57.6% and an inhibition in vivo at 10 mg/kg (Rattus norvegicus [29]) of 59.5%.
